Source: patent US5134137A, “Cephalosporin antibiotics” (The Upjohn Company, priority 1990, dated 1992)
Values after ≈ are worked out from the molar mass of the structure shown. Where two headings read alike, the source gives them in different places.

Assays:
[1] = test system: Salmonella typhimurium; test: Systemic infection model in mice, ED50, Salmonella typhimurium; format: in vivo; conditions: Salmonella enterica, 144 h, 50% survival six days post infection, per day, read-out: ED50 (95% confidence limits)
Method: (§1) Experimental Infections and Antitiotic Treatment (for ED50 in mice tests).
(§2) Mice are infected and treated with the test antibiotic compound according to procedures described previously [Yancey, Jr., R. J. et at. supra].
(§3) The test antibiotic compound is administered subcutaneously immediately following infection, then at 24 hours and 48 hours post infection. The medium effective dose (ED50) number is determined for all infections. The ED50 value is defined as the calculated concentration of the test antibiotic compound in mg. of compound per kilogram of mouse body weight per day at which 50% of the animals survived six days post infection.

[2] = test system: Escherichia coli; test: MIC, agar dilution, Escherichia coli; format: cell-based; conditions: Escherichia coli, read-out: MIC
Procedure, shortened: (§4)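 Each organism receives an inoculum of approx. 10^3–10^4 CFU, taken from a 5% CO2 BHI subculture standardised to 0.5 McFarland and diluted 1:20. It is spotted on Mueller-Hinton agar containing the compound, then incubated for 16–18 h at 37 °C with CO2.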

[3] = test system: Salmonella choleraesuis; test: MIC, agar dilution, Salmonella choleraesuis; format: cell-based; conditions: Salmonella enterica, read-out: MIC
Procedure, shortened: as §4

[4] = test system: P. hemolytica; test: Systemic infection model in mice, ED50, P. hemolytica; format: in vivo; conditions: Mus musculus, sc, 144 h, 50% survival six days post infection, per day, read-out: ED50 (95% confidence limits)
Method: as §1, §2, §3

[5] = test system: Streptococcus agalactiae; test: MIC, agar dilution, Streptococcus agalactiae; format: cell-based; conditions: Streptococcus agalactiae, read-out: MIC
Procedure, shortened: as §4

[6] = test system: Corynebacterium pyogenes; test: MIC, agar dilution, Corynebacterium pyogenes; format: cell-based; conditions: strain 213-2; read-out: MIC
Procedure, shortened: as §4

[7] = test system: Staphylococcus aureus; test: MIC, agar dilution, Staphylococcus aureus; format: cell-based; conditions: Staphylococcus aureus, read-out: MIC
Procedure, shortened: as §4

[8] = test system: Bordetella bronchiseptica; test: MIC, agar dilution, Bordetella bronchiseptica; format: cell-based; conditions: Bordetella bronchiseptica, read-out: MIC
Procedure, shortened: as §4

[9] = test system: Streptococcus dysgalactiae; test: MIC, agar dilution, Streptococcus dysgalactiae; format: cell-based; conditions: Streptococcus dysgalactiae; strain UC251; read-out: MIC
Procedure, shortened: as §4

[10] = test system: Pseudomonas aeruginosa; test: MIC, agar dilution, Pseudomonas aeruginosa; format: cell-based; conditions: Pseudomonas aeruginosa; strain ATCC27853; read-out: MIC
Procedure, shortened: as §4

[11] = test system: Streptococcus uberis; test: MIC, agar dilution, Streptococcus uberis; format: cell-based; conditions: Streptococcus uberis, read-out: MIC
Procedure, shortened: as §4

[12] = TYPHIMURIUM / UC6162, sc, strain UC6162, subcutaneous, 0, 24, 48 hours post infection
[13] = TYPHIMURIUM / UC6164, sc, strain UC6164, lactamase producing, subcutaneous, 0, 24, 48 hours post infection
[14] = CHOLERAESUIS / UC6073, strain UC6073
[15] = CHOLERAESUIS / UC6077, strain UC6077
[16] = strain UC6531, subcutaneous, 0, 24, 48 hours post infection
[17] = strain UC6532, lactamase producing, subcutaneous, 0, 24, 48 hours post infection

SMILES | ED50 [1, 12] [mg/kg] | ED50 [1, 13] [mg/kg] | MIC ([2]; strain ATCC25922) [µg/mL] | MIC ([2]; strain P75-1) [µg/mL] | MIC ([2]; strain UC3784) [µg/mL] | MIC ([2]; strain UC6720) [µg/mL] | MIC [3, 14] [µg/mL] | MIC [3, 15] [µg/mL] | ED50 [4, 16] [mg/kg] | ED50 [4, 17] [mg/kg] | MIC ([5]; strain UC3947) [µg/mL] | MIC ([5]; strain UC6892) [µg/mL] | MIC [6] [µg/mL] | MIC ([7]; strain ATCC25923) [µg/mL] | MIC ([7]; strain UC6093) [µg/mL] | MIC ([7]; strain UC6097) [µg/mL] | MIC ([7]; strain UC6688) [µg/mL] | MIC ([7]; strain UC9201) [µg/mL] | MIC ([8]; strain UC3287) [µg/mL] | MIC ([8]; strain UC6313) [µg/mL] | further results
CO/N=C(\C(=O)N[C@@H]1C(=O)N2C(C(=O)O)=C(CO)CS[C@H]12)c1csc(N)n1 [desacetyl cefotoxime, 7-[2-(2-amino-1,3-thiazol-4-yl)-(syn)-2-methoxyiminoacetamido]-3-hydroxymethylceph-3-em-4-carboxylic acid, reference compound] | 0.8 | 1 | 0.25 (≈ 0.605 µM) | 0.25 (≈ 0.605 µM) | 0.25 (≈ 0.605 µM) | 0.25 (≈ 0.605 µM) | 0.5 (≈ 1.21 µM) | 1 (≈ 2.42 µM) | 0.3 | 0.6 | ≤ 0.6 | ≤ 0.06 | 0.25 (≈ 0.605 µM) | 4 (≈ 9.67 µM) | 16 (≈ 38.7 µM) | 16 (≈ 38.7 µM) | > 32 | 16 (≈ 38.7 µM) | > 32 | > 32 | MIC [9]: ≤ 0.06 µg/mL; MIC [10]: > 32 µg/mL; MIC ([11]; strain UC3946): ≤ 0.06 µg/mL; MIC ([11]; strain UC6159): 16 µg/mL (≈ 38.7 µM)
CO/N=C(\C(=O)N[C@@H]1C(=O)N2C(C(=O)O)=C(CSC(=O)c3ccco3)CS[C@H]12)c1csc(N)n1 [ceftiofur, 7-[2-(amino-1,3-thiazol-4-yl)-2-(methoxyimino)acetamido]-3-[(fur-2-ylcarbonyl)thiomethyl]-3-cephem-4-carboxylic acid, reference compound] | 0.4 | 0.5 | 0.13 (≈ 0.248 µM) | 0.13 (≈ 0.248 µM) | 0.13 (≈ 0.248 µM) | 0.13 (≈ 0.248 µM) | 1 (≈ 1.91 µM) | 2 (≈ 3.82 µM) | 0.8 | 0.9 | ≤ 0.06 | ≤ 0.06 | < 0.06 | 0.25 (≈ 0.477 µM) | 1 (≈ 1.91 µM) | 0.5 (≈ 0.955 µM) | 32 (≈ 61.1 µM) | 1 (≈ 1.91 µM) | > 32 | > 32 | MIC [9]: ≤ 0.06 µg/mL; MIC [10]: 32 µg/mL (≈ 61.1 µM); MIC ([11]; strain UC3946): ≤ 0.06 µg/mL; MIC ([11]; strain UC6159): 0.25 µg/mL (≈ 0.477 µM)
CO/N=C(\C(=O)N[C@@H]1C(=O)N2C(C(=O)O)=C(CS)CS[C@H]12)c1csc(N)n1 [Formula III compound, 3-mercaptomethyl-7β-[2-(2-amino-1,3-thiazol-4-yl)-(Z)-2-(methoxyimino)acetamido]ceph-3-em-4-carboxylic acid] | 0.3 | 0.5 | 0.5 | 0.5 | 0.5 | 0.5 | 2 | 1 | 0.8 | 0.8 | ≤ 0.06 | ≤ 0.06 | 0.25 | 16 | 16 | 16 | > 32 | 16 | > 32 | > 32 | MIC [9]: ≤ 0.06 µg/mL; MIC [10]: > 32 µg/mL; MIC ([11]; strain UC3946): 0.25 µg/mL; MIC ([11]; strain UC6159): 32 µg/mL
